Experimental data as given in patent publication EP0428104A2, “Treatment of multi-drug resistant tumors with pyridyloxazole-2-ones” (MERRELL DOW PHARMACEUTICALS INC., priority 1989, dated 1991).

Test system: CHO^R cells
Experiment: Reversal of multidrug resistance: cell growth in vinblastine resistant tumor cell line, cell number by Coulter counter
Assay type: cell-based
Conditions: 72 hr
Experimental: CHO^R cells were plated at a density of 1X10⁵/35mm dish and were allowed to grow overnight at 37°C in a CO₂ incubator. The medium was replaced with medium containing the compounds and vinblastine (0.2 µg/ml). The cells were allowed to grow for further 72 hr and the cell number was determined by Coulter counter after trypsinization. […]

SMILES | % Inhibition of Cell Growth Compound + VLB (compound 0.1 µg/ml plus vinblastine 0.2 µg/ml) [%] | inhibition at 0.1 µg/mL (compound 0.1 µg/ml, without VLB, read-out: % Inhibition of Cell Growth Compound Only) [%] | % Inhibition of Cell Growth Compound + VLB (compound 1 µg/ml plus vinblastine 0.2 µg/ml) [%] | inhibition at 1 µg/mL (compound 1 µg/ml, without VLB, read-out: % Inhibition of Cell Growth Compound Only) [%] | % Inhibition of Cell Growth Compound + VLB (compound 10 µg/ml plus vinblastine 0.2 µg/ml) [%] | inhibition at 10 µg/mL (compound 10 µg/ml, without VLB, read-out: % Inhibition of Cell Growth Compound Only) [%] | effect on cell growth (VLB alone at 0.2 µg/ml)
CCCc1[nH]c(=O)oc1-c1ccncc1 [4-PROPYL-5(4-PYRIDINYL)-2(3H)-OXAZOLONE, 4-propyl-5-(4-pyridinyl)-2(3H)-oxazolone] | 6 | 0 | 22 | 0 | 82 | 55 | 
CC[C@]1(O)C[C@@H]2CN(CCc3c([nH]c4ccccc34)[C@@](C(=O)OC)(c3cc4c(cc3OC)N(C)[C@H]3[C@@](O)(C(=O)OC)[C@H](OC(C)=O)[C@]5(CC)C=CCN6CC[C@]43[C@@H]65)C2)C1 [VLB, vinblastine, reference compound] |  |  |  |  |  |  | did not have any effect on cell growth
